{"source": "paper PMC7708037", "about": "“Targeting OGG1 arrests cancer cell proliferation by inducing replication stress” (Nucleic Acids Research, 2020)", "key": {"[1]": {"test_system": "A3 OGG1-shRNA cells", "assay": "Off-target evaluation in OGG1 knockdown A3 cells", "assay_type": "cell-based, human", "procedure": "Figure 4. Anticancer properties overlap between OGG1 loss and OGG1 inhibitors. (A) Viability of T-cell acute […] leukemia cell lines treated for 5 days with the indicated doses TH5487. Data are average ±SD of independent experiments (A3, n = 5; Jurkat, n = 3; MOLT-4, n = 4; CCRF-CEM, n = 3). (B) Relative cell numbers and (C) viability (%) for A3 cells treated for 5 days with 10 μM TH5487. Data are average ±SD of six replicates from three independent experiments. (D) Induction of apoptosis in A3 cells treated for 72 h TH5487 and stained for Annexin V. Data are average ±SD of three independent experiments. (E) A3 cells transfected with shRNA targeting OGG1 were treated with doxycycline for 6 days and stained for Annexin V. Data are average ±SD of two independent experiments. (F) Scheme for recovery experiment in which A3 OGG1-shRNA cells or A3 cells were silenced or inhibited for 6 days with doxycycline (200 nM) or TH5487 (10 μM). […] Statistical significance was determined using unpaired, two-sided t-tests (*P < 0.05, **P < 0.01, ***P < 0.001, ****P < 0.0001, ns, non-significant). […]\nStatistical significance was determined using unpaired, two -sided T-tests (ns, non-significant, *, P<0.05, **, P<0.01, ***, P<0.001 and ****, P<0.0001) . […] D. Comparative bar graph with quantification from two independent Western blots. […]"}, "[2]": {"set-up": "method as in PMID 30442810", "conditions": "cited from earlier work"}, "[3]": {"test_system": "MCM4 gene promoter in A3 cells", "assay": "Oxidative DNA damage within MCM4 gene promoter (qPCR)", "assay_type": "cell-based, human", "conditions": "10 μM, 72 h", "procedure": "We adapted the procedure described by O’Callaghan et al. ([46]) to measure oxidative DNA damage at the MCM4 gene promoter region. This is a qPCR method based on differences in PCR kinetics between DNA template digested by FPG and undigested DNA. We have modified the original protocol to incorporate another purified human OGG1 to quantify the accumulation of base lesions specific for OGG1, 8-oxoguanine. Conditions used for incubation were 200 ng of gDNA together with 2.4 μM of hOGG1 during 4 h. The quantitative real-time amplification of genomic DNA was performed as described by O’Callaghan et al. ([46]). Specific primers were used at a final concentration of 100 nM (promoterMCM4-F: 5′-GCTGTGATTGGTGAGGCCC -3′; promoterMCM4-R: 5′-CAAACCGCGAGACCCAGAG-3′) . Amplification cycling conditions were 10 min at 95°C, followed by 40 cycles of 95°C for 15 s and 60°C for 1 min. ΔCT method was run in an ABI quant studio 1 and all samples were loaded and analyzed in triplicate.\nFigure 6. TH5487 treatment induces a downregulation of DNA replication genes (A) Gene Set Enrichment analysis plot of the DNA Replication Gene Ontology Gene Set. […] Only genes with a mean normalized count >5 were analyzed. […] Statistical significance was determined using a two-sided unpaired t-test (ns, non-significant, *P < 0.05, **P < 0.01, ***P < 0.001 and ****P < 0.0001)."}}}
{"smiles": "O=C(Nc1ccc(I)cc1)N1CCC(n2c(=O)[nH]c3c(Br)cccc32)CC1", "note": "[TH5487]", "values": [{"measurement": "Additional toxic effect in combination with doxycycline", "setting": "[1]; A3 sh2, 6 days", "value": "additional toxic effect"}, {"measurement": "Additional toxic effect in OGG1 knockdown cells", "setting": "[1]; doxycycline 5 days, then additional 48 h with 10 μM", "value": "no significant additional toxic effect"}, {"measurement": "Tolerability in mice", "setting": "[2]", "value": "well tolerated"}, {"measurement": "Oxidative DNA damage at SP1 binding motif of MCM4 promoter", "setting": "[3]", "value": "significant accumulation of oxidative DNA damage"}]}
